# Reference: US6827926B2, “Metallotetrapyrrolic photosensitizing agents for use in photodynamic therapy” (Miravant Pharmaceuticals, Inc., priority 2001, dated 2004)
# Assays:
# [1] = system: normal uninjured rat carotid arteries (medial and adventitial cell populations); assay: In vivo rat carotid artery acellularity after PDT; set-up: species or system Sprague Dawley rats; details: for Max % rat Artery Accelularity: Table 3, drug dose 1 μMol, 50 J/cm^2, 3 days post treatment
# In short: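 Metallated photosensitizers light-activated in normal uninjured rat left common carotid via balloon catheter introduced through femoral arteriotomy under isoflurane; excitation 575 nm (Ga, Zn, Al, Sn) or 532 nm (Pt). Arteries harvested 3 days post-treatment, H&E-stained; medial and adventitial cell density assessed by light microscopy.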
# [2] = Cardiovascular safety in pig coronary artery models (ECG, HR, BP); assay type: in vivo; details: doses exceeding 20 mg/Kg
# Description: (§1) Photosensitizers were administered systemically (at doses typically 2-3.5 mg/kg body weight, in a soybean phospholipid formulation) as a slow bolus injection in the ear vein. Drug treatments were followed (1-4 hr later) by endovascular light treatment (50-250 J/cm^2 fluence and 100-300 mW/cm^2 irradiance) in uninjured coronary (50-250 J/cm^2 fluence and 100-300 mW/cm^2 irradiance) and iliac (50-350 J/cm^2 fluence and 100-450 mW/cm^2 irradiance) arteries. In another set of experiments, animals also received balloon injuries in the coronary arteries at the time of PDT treatment. Angioplasty injuries in 2 coronary arteries were performed. Vital signs and cardiovascular parameters such as ECG, HR, BP, were monitored together with arterio-angiograms for measurements of vessel patency.
# [3] = system: V79 (Chinese Hamster Lung Fibroblasts) cells; assay: In vitro cytotoxicity assay (light EC50, Alamar blue); assay type: cell-based; details: Table 3 porphyrins, 24 h drug incubation, 532 nm, 1.25 J/cm^2, read-out: In Vitro EC50 Light
# In short: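 V79 cells in phenol-free 5% FBS/DMEM exposed 24 h to photosensitizer at final 0.01–5.0 μM, six replicates, then washed and light-treated, with a dark plate as control. Survival by Alamar blue after 24 h dark incubation, read at 570/600 nm.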
# [4] = system: balloon-injured pig coronary arteries; assay: Pig coronary artery balloon injury model, 14 days (inhibition of neointima / intimal hyperplasia); assay type: in vivo; details: for average inhibition of intimal hyperplasia over the length of the injured artery: pig coronary arteries; for Intimal hyperplasia Inhibition (14 days) Av. over injury: pig coronary artery balloon injury, drug dose 3 mg/Kg, 532 nm light, 55 J, 125 J/cm2, 250 mW
# Description: Those photosensitizers showing excellent efficacy in the rat carotid artery model were evaluated in more detail in the pig coronary artery model (Waksman, R., Rodriguez, J. C., Robinson, K. A., Cipolla, G. D., Crocker, I. R., Scott, N. A. King, S. B., Wilcox, J. N., Circulation, 96, 1944-1952, 1997). If vascular PDT is to be proposed as a therapy to prevent restenosis in humans due to angioplasty or stenting, then it must first be shown to be effective in a large animal model such as the swine. Porcine coronary arteries are very similar to human coronary arteries with regard to size, neointima formation, and thrombosis in response to injury.
# The swine model has been utilized in the preclinical evaluation of interventions to reduce restenosis for several reasons. Chief among these reasons are the similarities in (i) size and anatomy of the swine arteries to human arteries, that permits instrumentation and evaluation of results via catheters; and (ii) histopathological characteristics of the proliferative response following artery injury similar to that seen in humans. Furthermore, large animals including the swine have proven to be more predictive of success in reducing restenosis in humans than have small animal models. An extensive literature search (e.g., Weiner, B. H., et al. Circulation. 72:1081-1086,1985; Schwartz, R. S., et al. Circulation. 82:2190-2200, 1990; Vascular Brachytherapy, Veenendaal, The Netherlands:Nucletron B.V. 1996 pp.1-382) supports the notion that restenosis after balloon injury in porcine coronaries is the best model when compared to restenosis in humans. Therapies investigated in other species still must be confirmed in the porcine model. Several articles reviewing the relevant animal models for the study of restenosis have concluded that although imperfect, as are all animal models, the porcine model is still the best from the standpoint of similarity to human disease, ease of use, and cost (e.g., Schwartz, R. S., Murphy, J. G., Edwards, W. D., Camrud, A. R., Vlietstra, R. E., and Holmes, D. R. Restenosis after balloon angioplasty: A practical proliferative model in the porcine coronary arteries. Circulation. 82:2190-2200, 1990; Karas, S. P., Gravanis, M. B., Santoian, E. C., Robinson, K. A., and King, S. B., 3d Coronary intimal proliferation after balloon injury and stenting in swine: an animal model of restenosis. J.Am.Coll. Cardiology 20:467-474, 1992).
# as §1
# For longer term efficacy experiments (14 days after the PDT experiments) animals were sacrificed and serial sections of all relevant arteries (coronaries only) were harvested in 10% formalin and processed for histological assessment. Representative arterial segments underwent parafin embedding and sectioning for Hemoxylin & Eosin and/or elastin staining. Slides were prepared for microscopy histological analysis of the (i) acute cellular responses and (ii) inhibition of neointima formation following treatment. Once prepared, the slides were analyzed via microscopy for histomorphometry and effects such as medial wall acellularity, arterial wall and surrounding tissue cell death and proliferation. […]
Compound,Max % rat Artery Accelularity [1],cardiotoxicity in pig coronary artery models [2],EC50 [3],average inhibition of intimal hyperplasia over the length of the injured artery [4],Intimal hyperplasia Inhibition (14 days) Av. over injury [4],"average inhibition of intimal hyperplasia over the length of the injured artery ([4]; 3 mg/Kg, light fluence 125 J/cm^2)","acellularity (rat artery) ([1]; text b234, 1 μmol/Kg (printed 1 mol/Kg for 57))"
"COC(=O)CCC1=C(C)c2cc3[n-]c(cc4nc(cc5[n-]c(cc1n2)c(CCC(=O)OC)c5C)C=C4C)cc3C.[Cl-].[Ga+3] [Example 4, Gallium Chloride Deuteroporphyrin Dimethyl Ester]",95%,no cardiotoxicity was observed,400 nM,> 75%,>70%,,
"CCC1=C(C)C2=[N+]3C1=Cc1c(C)c(CC)c4[n]1[Ga-2]31([Cl])[n]3c(c(C)c(CCC(=O)NC)c3=CC3=[N+]1C(=C4)C(C)=C3CCC(=O)NC)=C2 [Example 121, Gallium Chloride Mesoporphyrin N-methyl Amide]",60%,no cardiotoxicity was observed,400 nM,,>70%,> 75%,
Gallium Chloride Mesoporphyrin Dimethyl Ester [Example 1],95%,no cardiotoxicity was observed,200 nM,> 80%,>80%,,95%
